Where a SMILES comes first, the peptide text is derived from it. [ ]: non-standard residue; d: D form.
Assays:
MRSP mature biofilm = assay: Mature biofilm biomass, crystal violet assay, MRSP; format: cell-based, Staphylococcus pseudintermedius; details: MRSP one-day-old biofilm, up to 25 μM, 24 h
Procedure: Biofilms were allowed to form in each well of a 96-well microtiter plate, as described by Stepanovic. After 24 h, planktonic cells were aspirated, and the plates were washed with 200 μL of PBS. Cells biofilms were exposed to 200 μL of peptide 8 at the final concentration ranging from 6.25 to 25 μM and the plate was further incubated for 24 h at 37 °C. Positive controls were non-treated cells incubated with 200 μL of medium broth. At the end of the experiment crystal violet-staining was performed to assess biofilm mass.

MRSP [1] = assay: Checkerboard synergy of peptide 8 and oxacillin; format: cell-based, Staphylococcus pseudintermedius; details: MRSP
Procedure: The interaction between peptide 8 and oxacillin against MRSP was evaluated by the checkerboard method. Briefly, twofold serial dilutions of oxacillin distributed in horizontal rows of 96-well microtiter plate were cross-diluted vertically by twofold serial dilutions of peptide 8 to at least double the MIC. The peptide 8 tested concentration ranging from 0.19 to 12.5 μM and oxacillin from 1.25 to 25 μM (0.5 to 10 μg/mL). Microtiter plates were inoculated with bacteria at an approximate concentration of 10^5 CFU/mL and incubated at 37 °C for 24 h. […] To evaluate the effect of the combination treatment, the fractional inhibitory concentration (FIC) index for each combination was calculated as follows: FIC index = FIC of peptide 8 + FIC of oxacillin, where FIC of peptide 8 (or oxacillin) was defined as the ratio of MIC of peptide 8 (or oxacillin) in combination and MIC of peptide 8 (or oxacillin) alone. The FIC index values were interpreted as follows: ≤0.5, synergistic; >0.5 to ≤1.0, additive; >1.0 to ≤2.0, indifferent; and >2.0, antagonistic effects.

MRSP [2] = assay: Time-kill assay, MRSP; format: cell-based, Staphylococcus pseudintermedius
Procedure: Time kill assay was carried out as previously described. […] Plates were incubated at 37 °C on an orbital shaker at 120 rpm. Viability assessments were performed at 0, 2, 4, 6 and 24 h by plating 0.01 mL undiluted and 10-fold serially diluted samples onto Mueller–Hinton plates in triplicate. After overnight incubation at 37 °C, bacterial colonies were counted and compared with counts from control cultures.

MSSP biofilm formation = assay: Biofilm formation, crystal violet assay, MSSP; format: cell-based, Staphylococcus pseudintermedius; details: sub-MIC 0.095 to 0.78 μM, 24 h
Procedure: Anti-biofilm activity of peptide 8 was examined by the crystal violet assay previously described with minor modifications. Microtiter plates were inoculated with bacteria at a final density of 10^6 CFU/mL and treated with peptide 8 ranging from 0.095 to 0.78 μM. Control cells were grown in the absence of peptide 8. After 24 h incubation at 37 °C, the supernatant was gently removed, and the wells were rinsed twice with PBS. The amount of biofilm formed in the wells was measured by crystal violet staining and the absorbance of the solution was measured at 595 nm.

[3] = in vivo model of acute inflammation; cited from earlier work
MSSP mature biofilm = assay: Mature biofilm metabolic activity, XTT assay, MSSP; format: cell-based, Staphylococcus pseudintermedius; details: 24 h
Procedure: The metabolic activity of MSSP and MRSP mature biofilms was quantified by the XTT [2,3-bis(2-methyloxy-4-nitro-5-sulfophenyl)-2H-tetrazolium-5-carboxanilide] (Roche Diagnostics, Germany) reduction assay. The assay was conducted as previously described with some modifications. XTT (150 µL) was added to biofilms in each well and the plates were incubated for 40 min at 37 °C in the dark. The reduction of the tetrazolium salt by cellular dehydrogenase into orange formazan dye was photometrically measured at 490 nm. The medium was set as negative control. Viability values for each well were compared to controls.

human keratinocytes = details: at MICs; cited from earlier work
Description: Azole drugs represent the first choice to treat Malassezia-related infections. It is well known that routine antifungal administration may induce acquired resistance. Peptide 8 was further investigated to verify if prolonged treatment might induce resistance in the yeast. […] Thus, a prolonged application of peptide 8 can be resolutive for yeast infection, without causing drug-resistance. By considering the good results obtained until here, we were prompted to inves ...

M. pachydermatis = test system: M. pachydermatis
Procedure: MIC of all compounds was determined in Sabouraud Dextrose broth with 1% tween 80 (SB) medium, for M. pachydermatis, and Mueller–Hinton broth (MH), for S. pseudintermedius, by the broth microdilution assay (BMD) in 96-well microtiter plates, as previously reported. Specifically, SB containing 1% Tween 80 was used instead of RPMI 1640 medium. All compounds were dissolved in ethanol and ketoconazole in dimethyl sulfoxide (DMSO). The solutions were serially diluted in SB and MH two-fold from 0.19 to 50 μM. M. pachydermatis suspension was prepared from 3-day-old colonies grown on Sabouraud agar at 30 °C. The final concentration of the yeast inoculum suspensions was equivalent to 1–3 × 10^3 CFU/mL. Bacterial suspensions were diluted to yield an optical density (OD) around 0.5 at 595 nm and further diluted to a final concentration of 1 × 10^6 CFU/mL. The compounds were added to the microbial suspension in each well yielding a final cell concentration of 5 × 10^5 CFU/mL. Positive controls included oxacillin 5 μM (2 μg/mL) and vancomycin 1.4 μM (2 μg/mL) for S. pseudintermedius or ketoconazole 0.2 μM (0.125 μg/mL) for M. pachydermatis. Negative control wells were set to contain bacteria in MH or yeasts in SB plus the amount of ethanol used to dilute each compound. Medium turbidity was measured by a microtiter plate reader (Tecan, Milan, Italy) at 595 nm after 24 h for S. pseudintermedius and 48 h for M. pachydermatis. Absorbance was proportional to microbial growth. The MIC was defined as the lowest concentration of drug that caused a prominent decrease (≥90% inhibition) in visible growth relative to that of the growth control.

**Q.** For `CC[C@H](C)[C@H](NC(=O)[C@H](CCCNC(=N)N)NC(=O)[C@@H](CCCCN)NC(=O)[C@@H](CC(C)C)NC(=O)[C@H](Cc1ccccc1)NC(=O)[C@H](CCCCN)NC(=O)[C@H](CO)NC(=O)[C@H](Cc1ccccc1)NC(=O)[C@H](Cc1c[nH]c2ccccc12)NC(=O)[C@@H]1CCCN1C(=O)[C@@H](NC(=O)[C@@H](N)Cc1ccccc1)C(C)C)C(=O)N[C@@H](CC(C)C)C(N)=O` [Peptide 8] (H-FVPWFSKF[dL][dK]RIL-NH2; N-terminus assumed), which “Effect on mature biofilm biomass” value (MRSP mature biofilm) is on record?
**A.** did not affect the biomass

**Q.** And the FICindex (MRSP [1]; peptide 8 + oxacillin, checkerboard, 37 °C 24 h, ≤0.5 synergistic)?
**A.** 0.37

**Q.** What about the “Concentration of peptide 8 in the most synergistic combination” value (MRSP [1]; with 3.1 μM oxacillin, 1/4 MIC) of the same compound?
**A.** 1.56 µM

**Q.** What about the “Log10CFU/mL 0 h” value (MRSP [2]; peptide at MIC value (6.25 μM), 37 °C, 0 h, three independent experiments in triplicate) of the same compound?
**A.** 5.30 ± 0.18 Log10CFU/mL

**Q.** What about the “Log10CFU/mL 1 h” value (MRSP [2]; peptide at MIC value (6.25 μM), 1 h) of the same compound?
**A.** 2.47 ± 0.18 Log10CFU/mL

**Q.** And the “Log10CFU/mL 2 h” value (MRSP [2]; peptide at MIC value (6.25 μM), 2 h)?
**A.** 2.38 ± 0.19 Log10CFU/mL

**Q.** And the “Log10CFU/mL 4 h” value (MRSP [2]; peptide at MIC value (6.25 μM), 4 h)?
**A.** 1.30 ± 0.21 Log10CFU/mL

**Q.** What about the “Log10CFU/mL 6 h” value (MRSP [2]; peptide at MIC value (6.25 μM), 6 h) of the same compound?
**A.** 0.77 ± 0.12 Log10CFU/mL

**Q.** And the “Log10CFU/mL 24 h” value (MRSP [2]; peptide at MIC value (6.25 μM), 24 h)?
**A.** 4.86 ± 0.28 Log10CFU/mL

**Q.** What about the “Bactericidal or bacteriostatic activity” value (MRSP [2]; time-kill at MIC value) of the same compound?
**A.** bacteriostatic

**Q.** What about the “Effect on biofilm formation” value (MSSP biofilm formation) of the same compound?
**A.** ineffective

**Q.** And the Anti-inflammatory activity [3]?
**A.** potent anti-inflammatory activity

**Q.** What about the “Reduction of biofilm viability” value (MSSP mature biofilm; 12.5 μM) of the same compound?
**A.** 38%

**Q.** And the “Effect on biofilm viability at 25 μM” value (MSSP mature biofilm; 25 μM)?
**A.** reduced effect

**Q.** What about the Cytotoxicity (human keratinocytes) of the same compound?
**A.** low cytotoxicity

**Q.** And the “MMC/MIC Ratio” value (M. pachydermatis; M. pachydermatis)?
**A.** 1

**Q.** And the “MMC Values (minimum mycocidal concentration)” value (M. pachydermatis; ≥3 log10 reduction in colony count from starting inoculum, agar 72 h at 30 °C)?
**A.** 6.25 µM

Reference: article PMC7560154, “Novel Antimicrobial Peptide from Temporin L in The Treatment of Staphylococcus pseudintermedius and Malassezia pachydermatis in Polymicrobial Inter-Kingdom Infection” (Antibiotics, 2020)
